Experimental data reported in ChEMBL document CHEMBL2021914, “Inhibition of platelet adhesion by peptidomimetics mimicking the interactive β-hairpin of glycoprotein Ibα” (Bioorg Med Chem Lett, 2012).
The source made the active and inactive calls. The calls are words filed in the database; no cut-off is given here. Where a SMILES comes first, the peptide text is derived from it. Bridges are numbered along the chain shown (N, C = ends).

Columns and labels:
[1] = molecular target: von Willebrand factor (Homo sapiens) (UniProt P04275); test: Inhibition of GPIbalpha-human vWF binding assessed as decrease in arterial shear-induced platelet adhesion to vWF measuring number of platelets adhered after flow at 100 uM preincubated for 5 mins by parallel plate flow assay with real time imaging microscopy
[2] = molecular target: von Willebrand factor (Homo sapiens) (UniProt P04275); test: Inhibition of GPIbalpha-human vWF binding assessed as decrease in arterial shear-induced platelet adhesion to vWF measuring number of platelets adhered during flow at 100 uM preincubated for 5 mins by parallel plate flow assay with real time imaging microscopy
[3] = molecular target: von Willebrand factor (Homo sapiens) (UniProt P04275); test: Inhibition of GPIbalpha-vWF binding assessed as constant shear stress at 120 dynes/cm'2-induced platelet agglutination at 10 uM preincubated for 5 mins by cone and plate rheometer analysis relative to control using female platelet rich plasma (reference value: 100%); design: scale not given: the % may be the effect or the level left
[4] = molecular target: von Willebrand factor (Homo sapiens) (UniProt P04275); test: Inhibition of GPIbalpha-human vWF binding assessed as platelet rolling velocity at 100 uM preincubated for 5 mins by parallel plate flow assay with real time imaging microscopy (reference value: 7.1 um/sec)
[5] = molecular target: von Willebrand factor (Homo sapiens) (UniProt P04275); test: Inhibition of GPIbalpha-vWF binding assessed as ristocetin-induced platelet agglutination at 100 uM after 2 mins by static agglutination assay using washed platelets from male (reference value: 58%); design: scale not given: the % may be the effect or the level left
[6] = molecular target: von Willebrand factor (Homo sapiens) (UniProt P04275); test: Inhibition of GPIbalpha-vWF binding assessed as constant shear stress at 120 dynes/cm'2-induced platelet agglutination at 10 uM preincubated for 5 mins by cone and plate rheometer analysis relative to control using male platelet rich plasma (reference value: 100%); design: scale not given: the % may be the effect or the level left
[7] = molecular target: von Willebrand factor (Homo sapiens) (UniProt P04275); test: Inhibition of GPIbalpha-vWF binding assessed as ristocetin-induced platelet agglutination at 100 uM after 2 mins by static agglutination assay using washed platelets from female (reference value: 61.7%); design: scale not given: the % may be the effect or the level left
[8] = molecular target: von Willebrand factor (Homo sapiens) (UniProt P04275); test: Inhibition of GPIbalpha-vWF binding assessed as ristocetin-induced platelet agglutination at 1 uM after 2 mins by static agglutination assay using platelet rich plasma (reference value: 76.3%); design: scale not given: the % may be the effect or the level left
[9] = molecular target: von Willebrand factor (Homo sapiens) (UniProt P04275); test: Inhibition of GPIbalpha-vWF binding assessed as inhibition of ristocetin-induced platelet agglutination at 100 uM after 2 mins by static agglutination assay using washed platelets from female
[10] = molecular target: von Willebrand factor (Homo sapiens) (UniProt P04275); test: Inhibition of GPIbalpha-vWF binding assessed as ristocetin-induced platelet agglutination at 10 uM after 2 mins by static agglutination assay using platelet rich plasma (reference value: 76.3%); design: scale not given: the % may be the effect or the level left
[11] = molecular target: von Willebrand factor (Homo sapiens) (UniProt P04275); test: Inhibition of GPIbalpha-vWF binding assessed as ristocetin-induced platelet agglutination at 100 uM after 2 mins by static agglutination assay using platelet rich plasma (reference value: 76.3%); design: scale not given: the % may be the effect or the level left
[12] = molecular target: von Willebrand factor (Homo sapiens) (UniProt P04275); test: Inhibition of GPIbalpha-vWF binding assessed as inhibition of ristocetin-induced platelet agglutination at 100 uM after 2 mins by static agglutination assay
[13] = molecular target: von Willebrand factor (Homo sapiens) (UniProt P04275); test: Inhibition of GPIbalpha-vWF binding assessed as ristocetin-induced platelet agglutination at 100 uM after 2 mins by static agglutination assay using washed platelets (reference value: 66.5%); design: scale not given: the % may be the effect or the level left
[14] = molecular target: von Willebrand factor (Homo sapiens) (UniProt P04275); test: Inhibition of GPIbalpha-vWF binding assessed as ristocetin-induced platelet agglutination at 10 uM after 2 mins by static agglutination assay using washed platelets (reference value: 66.5%); design: scale not given: the % may be the effect or the level left
[15] = molecular target: von Willebrand factor (Homo sapiens) (UniProt P04275); test: Inhibition of GPIbalpha-vWF binding assessed as ristocetin-induced platelet agglutination at 1 uM after 2 mins by static agglutination assay using washed platelets (reference value: 66.5%); design: scale not given: the % may be the effect or the level left
[16] = molecular target: von Willebrand factor (Homo sapiens) (UniProt P04275); test: Inhibition of GPIbalpha-vWF binding assessed as inhibition of ristocetin-induced platelet agglutination at 100 uM after 2 mins by static agglutination assay using washed platelets from male

Chain of von Willebrand factor (Homo sapiens) (P04275 whole entry): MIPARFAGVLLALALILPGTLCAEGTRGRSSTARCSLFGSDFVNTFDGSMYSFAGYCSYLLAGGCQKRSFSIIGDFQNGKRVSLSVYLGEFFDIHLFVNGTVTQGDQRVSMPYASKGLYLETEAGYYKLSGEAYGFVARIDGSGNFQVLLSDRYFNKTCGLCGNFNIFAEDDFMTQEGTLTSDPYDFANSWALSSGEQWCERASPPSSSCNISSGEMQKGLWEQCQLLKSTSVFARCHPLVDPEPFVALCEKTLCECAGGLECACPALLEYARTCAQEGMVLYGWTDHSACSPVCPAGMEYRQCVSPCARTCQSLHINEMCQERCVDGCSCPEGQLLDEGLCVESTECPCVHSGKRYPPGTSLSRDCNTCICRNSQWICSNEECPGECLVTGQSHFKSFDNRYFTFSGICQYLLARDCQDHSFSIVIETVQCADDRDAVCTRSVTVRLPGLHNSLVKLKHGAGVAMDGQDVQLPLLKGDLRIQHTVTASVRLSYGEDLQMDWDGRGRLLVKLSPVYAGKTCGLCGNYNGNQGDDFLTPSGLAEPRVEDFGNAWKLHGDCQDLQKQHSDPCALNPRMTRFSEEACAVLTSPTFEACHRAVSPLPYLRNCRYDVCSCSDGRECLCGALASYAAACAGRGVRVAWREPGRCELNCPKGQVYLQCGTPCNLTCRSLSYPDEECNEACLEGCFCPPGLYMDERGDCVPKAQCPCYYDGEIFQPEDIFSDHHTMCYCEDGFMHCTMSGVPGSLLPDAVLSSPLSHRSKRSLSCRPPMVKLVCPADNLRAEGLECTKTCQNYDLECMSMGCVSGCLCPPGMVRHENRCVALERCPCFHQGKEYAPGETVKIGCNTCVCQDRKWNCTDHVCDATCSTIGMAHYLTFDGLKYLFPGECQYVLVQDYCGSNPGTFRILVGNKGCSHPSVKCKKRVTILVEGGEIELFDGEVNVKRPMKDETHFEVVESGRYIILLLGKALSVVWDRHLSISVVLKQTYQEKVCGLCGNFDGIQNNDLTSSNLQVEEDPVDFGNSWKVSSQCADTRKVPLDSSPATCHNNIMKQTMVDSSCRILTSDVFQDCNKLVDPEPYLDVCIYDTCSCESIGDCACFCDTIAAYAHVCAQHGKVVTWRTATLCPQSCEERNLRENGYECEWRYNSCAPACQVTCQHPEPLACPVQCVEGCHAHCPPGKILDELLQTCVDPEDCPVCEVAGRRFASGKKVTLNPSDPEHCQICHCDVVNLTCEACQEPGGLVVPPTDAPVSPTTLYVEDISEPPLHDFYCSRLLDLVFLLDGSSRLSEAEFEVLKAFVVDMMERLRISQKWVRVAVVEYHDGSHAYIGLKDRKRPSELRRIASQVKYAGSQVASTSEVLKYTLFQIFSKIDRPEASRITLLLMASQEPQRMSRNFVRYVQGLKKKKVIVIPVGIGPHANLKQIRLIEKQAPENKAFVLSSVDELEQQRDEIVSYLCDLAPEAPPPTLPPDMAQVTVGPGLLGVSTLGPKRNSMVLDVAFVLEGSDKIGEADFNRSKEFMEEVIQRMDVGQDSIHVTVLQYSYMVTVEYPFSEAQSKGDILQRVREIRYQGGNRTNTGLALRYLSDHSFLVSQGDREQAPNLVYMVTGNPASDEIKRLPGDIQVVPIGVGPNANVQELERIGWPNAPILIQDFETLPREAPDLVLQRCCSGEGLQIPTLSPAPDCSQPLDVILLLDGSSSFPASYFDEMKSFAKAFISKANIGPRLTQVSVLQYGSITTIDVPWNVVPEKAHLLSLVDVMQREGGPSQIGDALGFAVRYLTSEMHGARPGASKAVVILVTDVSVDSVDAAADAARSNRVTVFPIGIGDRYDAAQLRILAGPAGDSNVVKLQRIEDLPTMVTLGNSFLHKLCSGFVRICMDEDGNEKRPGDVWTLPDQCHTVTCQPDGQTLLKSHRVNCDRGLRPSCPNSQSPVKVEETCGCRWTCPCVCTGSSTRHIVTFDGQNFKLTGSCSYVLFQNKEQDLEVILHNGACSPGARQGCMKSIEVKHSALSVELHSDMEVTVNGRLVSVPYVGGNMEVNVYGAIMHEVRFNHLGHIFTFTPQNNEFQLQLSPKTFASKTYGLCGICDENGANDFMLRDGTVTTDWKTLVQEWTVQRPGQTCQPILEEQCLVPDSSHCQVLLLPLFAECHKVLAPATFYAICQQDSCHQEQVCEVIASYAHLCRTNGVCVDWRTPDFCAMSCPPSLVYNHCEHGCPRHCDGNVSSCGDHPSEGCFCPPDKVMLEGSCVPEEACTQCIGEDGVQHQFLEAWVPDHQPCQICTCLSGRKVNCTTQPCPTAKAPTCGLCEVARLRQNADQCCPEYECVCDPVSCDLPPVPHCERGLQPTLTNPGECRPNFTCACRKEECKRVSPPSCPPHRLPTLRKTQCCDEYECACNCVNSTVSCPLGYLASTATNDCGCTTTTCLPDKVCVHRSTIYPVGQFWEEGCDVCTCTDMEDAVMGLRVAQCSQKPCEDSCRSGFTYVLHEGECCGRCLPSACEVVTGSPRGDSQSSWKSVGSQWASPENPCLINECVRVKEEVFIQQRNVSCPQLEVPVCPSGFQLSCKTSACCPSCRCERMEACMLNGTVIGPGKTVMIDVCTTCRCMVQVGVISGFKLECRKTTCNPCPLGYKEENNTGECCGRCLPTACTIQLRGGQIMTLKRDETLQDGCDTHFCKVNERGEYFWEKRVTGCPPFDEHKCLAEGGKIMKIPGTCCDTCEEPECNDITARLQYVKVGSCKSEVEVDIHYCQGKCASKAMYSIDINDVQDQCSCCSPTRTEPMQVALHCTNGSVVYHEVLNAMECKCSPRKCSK

Activity [4] [um/s]	Activity [5] [%]	Activity [7] [%]	inhibition [12] [%]	Molecule	further results
–	–	–	–	H-PGPVYVWKQGVDVKAVTSN-OH	inhibition [1]: inactive; inhibition [2]: inactive
5.6	58.8	59.7	–	CC(C)[C@H](NC(=O)CNC(=O)[C@H](CCC(N)=O)NC(=O)[C@H](CCCCN)NC(=O)[C@H](Cc1c[nH]c2ccccc12)NC(=O)[C@H]1CCCN1C(=O)[C@@H]1CCCN1C(=O)[C@@H](NC(=O)[C@H](C)NC(=O)[C@H](CCCCN)NC(=O)[C@@H](NC(=O)[C@@H](N)CC(=O)O)C(C)C)C(C)C)C(=O)O	Activity [3]: 99.7%; Activity [6]: 111%
8.1	32	50.7	43.9	CC(C)[C@@H]1NC(=O)CNC(=O)[C@@H]2CSSC[C@H](NC(=O)[C@H](C(C)C)NC(=O)[C@H](CC(=O)O)NC1=O)C(=O)N[C@@H](C)C(=O)N[C@@H](C(C)C)C(=O)N1CCC[C@H]1C(=O)N1CCC[C@@H]1C(=O)N[C@@H](Cc1c[nH]c3ccccc13)C(=O)N[C@@H](CCCCN)C(=O)N2	Activity [8]: 61.7%; Activity [3]: 122%; inhibition [9]: 17.8%; Activity [10]: 57.3%; Activity [11]: 46.7%; Activity [13]: 37.3%; Activity [14]: 46%; Activity [15]: 57.5%; inhibition [16]: 44.8%; Activity [6]: 107%
–	–	–	8.9	CC(C)[C@@H]1NC(=O)CNC(=O)[C@H](CCC(N)=O)NC(=O)[C@H](CCCCN)NC(=O)[C@H](Cc2c[nH]c3ccccc23)NC(=O)[C@H](C(C)C)NC(=O)[C@H]2CCCN2C(=O)[C@@H]2CCCN2C(=O)[C@H]([C@@H](C)O)NC(=O)[C@H](C(C)C)NC(=O)[C@H](C)NC(=O)[C@H](CCCCN)NC(=O)[C@H](C(C)C)NC(=O)[C@H](CC(=O)O)NC1=O	–
–	–	–	42.1	CC(=O)N[C@@H](CO)C(=O)N[C@@H](Cc1cnc[nH]1)C(=O)N[C@@H](CC(C)C)C(=O)N[C@@H](CCC(=O)O)C(=O)N[C@H](C(=O)N[C@@H](CC(N)=O)C(=O)N1CCC[C@H]1C(=O)N1CCC[C@@H]1C(=O)N[C@@H](CCC(=O)O)C(=O)N[C@H](C(=O)N[C@@H](CO)C(=O)N[C@@H](CCCCN)C(=O)N[C@H](C(=O)N[C@@H](C)C(=O)O)C(C)C)C(C)C)C(C)C	–
–	–	–	10.4	CC(C)C[C@@H]1NC(=O)[C@H](Cc2cnc[nH]2)NC(=O)[C@H](CO)NC(=O)[C@H](C)NC(=O)[C@H](C(C)C)NC(=O)[C@H](CCCCN)NC(=O)[C@H](CO)NC(=O)[C@H](C(C)C)NC(=O)[C@H](CCC(=O)O)NC(=O)[C@H]2CCCN2C(=O)[C@@H]2CCCN2C(=O)[C@H](CC(N)=O)NC(=O)[C@H](C(C)C)NC(=O)[C@H](CCC(=O)O)NC1=O	–
7	36	57.3	28.5	CC(C)[C@H](NC(=O)CNC(=O)[C@@H]1CSSC[C@H](NC(=O)[C@@H](NC(=O)[C@@H](N)CC(=O)O)C(C)C)C(=O)N[C@@H](C)C(=O)N[C@@H](C(C)C)C(=O)N2CCC[C@H]2C(=O)N2CCC[C@@H]2C(=O)N[C@@H](Cc2c[nH]c3ccccc23)C(=O)N[C@@H](CCCCN)C(=O)N1)C(N)=O	–
–	–	–	7.1	CC(C)C[C@@H]1NC(=O)[C@H](Cc2cnc[nH]2)NC(=O)[C@H](CO)NC(=O)[C@H](C)NC(=O)[C@H](C(C)C)NC(=O)[C@H](CCCCN)NC(=O)[C@H](CO)NC(=O)[C@H](C(C)C)NC(=O)[C@H](CCC(=O)O)NC(=O)[C@@H](N)CSSC[C@@H](C(=O)N[C@@H](CC(=O)O)C(=O)N[C@@H](CCCCN)C(N)=O)NC(=O)[C@H](CC(N)=O)NC(=O)[C@H](C(C)C)NC(=O)[C@H](CCC(=O)O)NC1=O (H-CEVSKVASHLEVNCDK-NH2; disulfide 1-14)	–
–	–	–	44.6	CC(C)[C@@H]1NC(=O)CNC(=O)[C@@H]2CSSC[C@H](NC(=O)[C@H](C(C)C)NC(=O)[C@H](CC(=O)O)NC1=O)C(=O)N[C@@H](C)C(=O)N[C@@H](C(C)C)C(=O)N[C@@H]([C@@H](C)O)C(=O)N1CCC[C@H]1C(=O)N1CCC[C@@H]1C(=O)N[C@@H](C(C)C)C(=O)N[C@@H](Cc1c[nH]c3ccccc13)C(=O)N[C@@H](CCCCN)C(=O)N2	–
–	–	–	40.5	CC(C)[C@@H]1NC(=O)CNC(=O)[C@H](CCC(N)=O)NC(=O)[C@H](CCCCN)NC(=O)[C@H](Cc2c[nH]c3ccccc23)NC(=O)[C@H](C(C)C)NC(=O)[C@H](Cc2ccc(O)cc2)NC(=O)[C@H](C(C)C)NC(=O)[C@@H]2CCCN2C(=O)CNC(=O)[C@@H]2CCCN2C(=O)[C@H](CC(N)=O)NC(=O)[C@H](CO)NC(=O)[C@H]([C@@H](C)O)NC(=O)[C@H](C(C)C)NC(=O)[C@H](C)NC(=O)[C@H](CCCCN)NC(=O)[C@H](C(C)C)NC(=O)[C@H](CC(=O)O)NC1=O (cyclo(AVTSNPGPVYVWKQGVDVK))	inhibition [1]: Active; inhibition [2]: Active
